Measured values published in patent publication EP4483954A1 (Masarykova Univerzita, priority 2023, dated 2025).

Key:
Type in all cases: biochemical
Haspin (h) = target: T1, Haspin (h) (Homo sapiens, UniProt Q8TF76); assay: radiometric kinase assay (KinaseProfiler, Eurofins), Haspin; settings: in vitro radiometric kinase assay, tested at 1 nM to 10 000 nM, no pre-incubation; read-out: inhibitory activities (IC50 values) Haspin
T1 construct: purchased Eurofins (KinaseProfiler)
T1 sequence (Q8TF76 1-798): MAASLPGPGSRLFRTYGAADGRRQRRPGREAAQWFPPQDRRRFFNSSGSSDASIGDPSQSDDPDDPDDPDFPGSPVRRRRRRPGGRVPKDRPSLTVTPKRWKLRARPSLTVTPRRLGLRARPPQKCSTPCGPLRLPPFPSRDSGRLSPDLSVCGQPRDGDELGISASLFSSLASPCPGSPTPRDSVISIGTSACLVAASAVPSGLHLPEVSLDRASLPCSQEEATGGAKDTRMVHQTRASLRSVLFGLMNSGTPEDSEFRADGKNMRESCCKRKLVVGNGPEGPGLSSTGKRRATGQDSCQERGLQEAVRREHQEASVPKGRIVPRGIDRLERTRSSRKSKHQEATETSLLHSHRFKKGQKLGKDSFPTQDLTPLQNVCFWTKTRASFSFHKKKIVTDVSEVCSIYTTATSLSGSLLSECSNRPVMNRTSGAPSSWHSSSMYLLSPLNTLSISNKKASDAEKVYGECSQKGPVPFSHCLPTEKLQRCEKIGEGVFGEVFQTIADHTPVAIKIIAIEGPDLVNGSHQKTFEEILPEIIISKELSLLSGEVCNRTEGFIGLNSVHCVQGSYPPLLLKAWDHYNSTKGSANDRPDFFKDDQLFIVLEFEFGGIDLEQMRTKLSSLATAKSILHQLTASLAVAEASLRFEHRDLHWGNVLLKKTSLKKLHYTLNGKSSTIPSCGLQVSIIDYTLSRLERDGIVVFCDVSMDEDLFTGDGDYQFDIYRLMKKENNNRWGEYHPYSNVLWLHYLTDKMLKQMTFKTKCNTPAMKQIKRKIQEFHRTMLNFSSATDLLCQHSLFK
Method in brief: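 Human Haspin in 8 mM MOPS pH 7.0 with 500 µM RARTLSFAEPG, 10 mM Mg acetate and γ-33P-ATP; compound added without preincubation. Reaction ran 40 min at room temperature, then filter-bound 33P was counted. Nine concentrations from 1 to 10 000 nM gave % remaining activity versus DMSO, and IC50 came from curve fit.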

TRB2(h) = target: T2, TRB2(h) (Homo sapiens, UniProt Q92519); assay: radiometric kinase assay (KinaseProfiler, Eurofins), TRB2; settings: in vitro radiometric kinase assay, tested at 1 nM to 10 000 nM, no pre-incubation; read-out: inhibitory activities (IC50 values) TRB2
T2 construct: purchased Eurofins (KinaseProfiler)
T2 sequence (Q92519 1-343): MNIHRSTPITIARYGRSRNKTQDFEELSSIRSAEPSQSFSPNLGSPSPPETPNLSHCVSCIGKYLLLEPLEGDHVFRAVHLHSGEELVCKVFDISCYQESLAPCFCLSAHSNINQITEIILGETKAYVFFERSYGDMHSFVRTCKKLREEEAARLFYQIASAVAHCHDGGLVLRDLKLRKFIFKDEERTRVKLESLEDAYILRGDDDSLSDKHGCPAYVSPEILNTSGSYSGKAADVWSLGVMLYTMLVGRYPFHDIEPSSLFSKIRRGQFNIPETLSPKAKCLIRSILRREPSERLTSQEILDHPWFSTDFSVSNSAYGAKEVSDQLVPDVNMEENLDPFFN
Experimental: (§1) The compounds were profiled in the radiometric assays (KinaseProfiler, Eurofins).
(§2) Briefly, kinases were diluted in the buffer shown below prior to addition to the reaction mix: • CDKL3, TAF1L: 20 mM Tris/HCl pH 8.5, 0.2 mM EDTA, 0.1% β-mercaptoethanol, 0.01% Brij-35, 5% glycerol, 1 mg/ml BSA; • Haspin: 15 mM MOPS, 0.75 mM EDTA, 0.0075% Brij-35, 3.75% Glycerol, 150 mM NaCl, 0.1% β-mercaptoethanol, 1 mg/mLBSA; • CDKL4, CLK2, PIM1, TRB2: […], 1 mM EDTA, 0.01% Brij-35, 5% Glycerol, 0.1% β-mercaptoethanol, 1 mg/mL BSA.
(§3) All compounds were prepared to 50x final assay concentration in 100% DMSO. This working stock of the compound was added to the assay well as the first component in the reaction, followed by the remaining components as detailed in the general assay protocols below. There was no pre-incubation step between the compound and the kinase prior to initiation of the reaction.
(§4) TRB2(h) was incubated with 8 mM MOPS pH 7.0, 0.2 mM EDTA, 250 µM RRRFRPASPLRGPPK (SEQ ID NO. 1), 10 mM magnesium acetate and γ-^33P-ATP (specific activity and concentration as required). The reaction was initiated by the addition of the Mg/ATP mix. After incubation for 120 minutes at room temperature, the reaction was stopped by the addition of phosphoric acid to a concentration of 0.5%. An aliquot of the stopped reaction was spotted onto a filter and washed four times for 4 minutes in 0.425% phosphoric acid and once in methanol prior to drying and scintillation counting.
(§5) Kinase activity data were expressed as the percent remaining kinase activity in tested samples compared to the vehicle (DMSO) reactions. The compounds were tested at the following concentrations: 1 nM, 3 nM, 10 nM, 30 nM, 100 nM, 300 nM, 1000 nM, 3000 nM, and 10 000 nM; IC50 values and curve fits were then obtained.

CDKL3(h) = target: T3, CDKL3(h) (Homo sapiens, UniProt Q8IVW4); assay: radiometric kinase assay (KinaseProfiler, Eurofins), CDKL3; settings: in vitro radiometric kinase assay, tested at 1 nM to 10 000 nM, no pre-incubation; read-out: inhibitory activities (IC50 values) CDKL3
T3 construct: purchased Eurofins (KinaseProfiler)
T3 sequence (Q8IVW4 whole entry): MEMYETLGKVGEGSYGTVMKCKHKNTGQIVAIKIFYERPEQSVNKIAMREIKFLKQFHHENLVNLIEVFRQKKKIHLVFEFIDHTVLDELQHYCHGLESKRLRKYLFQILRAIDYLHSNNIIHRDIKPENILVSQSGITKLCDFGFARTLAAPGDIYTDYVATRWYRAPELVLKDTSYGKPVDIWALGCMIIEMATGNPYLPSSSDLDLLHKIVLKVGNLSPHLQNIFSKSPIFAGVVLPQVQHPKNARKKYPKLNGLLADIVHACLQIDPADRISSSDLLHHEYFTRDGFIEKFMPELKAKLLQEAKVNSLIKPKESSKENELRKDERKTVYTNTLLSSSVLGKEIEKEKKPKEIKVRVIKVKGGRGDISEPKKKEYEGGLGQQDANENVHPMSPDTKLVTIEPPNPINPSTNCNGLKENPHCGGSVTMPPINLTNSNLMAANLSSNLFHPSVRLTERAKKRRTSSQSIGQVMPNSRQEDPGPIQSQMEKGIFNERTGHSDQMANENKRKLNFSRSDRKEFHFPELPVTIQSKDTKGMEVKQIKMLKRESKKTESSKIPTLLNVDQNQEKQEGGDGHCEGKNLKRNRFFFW
Experimental: as §1, §2, §3
as §4, with “CDKL3(h)” for “TRB2(h)”
as §5

IC50 (Haspin (h)) [nM]	IC50 (TRB2(h)) [nM]	IC50 (CDKL3(h)) [nM]	SMILES
100 to 499	500 to 3000	100 to 499	COc1cc(-c2csc3ccc(-c4cnn(C)c4)nc23)ccn1 [Preparative Example 17, 3-(2-methoxypyridin-4-yl)-5-(1-methyl-1H-pyrazol-4-yl)thieno[3.2-b]pyridine]
3000 to 10000	500 to 3000	500 to 3000	Cn1cc(-c2ccc3scc(-c4ccncc4)c3n2)c(N)n1 [Preparative Example 84, 1-methyl-4-(3-(pyridin-4-yl)thieno[3,2-b]pyridin-5-yl)-1H-pyrazol-3-amine]
20 to 99	20 to 99	100 to 499	Cn1cc(-c2ccc3scc(-c4ccc5ncnn5c4)c3n2)cn1 [Preparative Example 53, 3-([1,2,4]-triazolo[1,5-a]pyridin-6-yl)-5-(1-methyl-1H-pyrazol-4-yl)thieno[3,2-b]pyridine]
3000 to 10000	3000 to 10000	500 to 3000	FC(F)(F)n1cc(-c2ccc3scc(-c4ccncc4)c3n2)cn1 [Preparative Example 78, 3-(pyridin-4-yl)-5-(1-(trifluoromethyl)-1H-pyrazol-4-yl)thieno[3,2-b]pyridine]
500 to 3000	500 to 3000	500 to 3000	CCn1cc(-c2ccc3scc(-c4ccncc4)c3n2)cn1 [Preparative Example 77, 5-(1-ethyl-1H-pyrazol-4-yl)-3-(pyridin-4-yl)thieno[3,2-b]pyridine]
100 to 499	100 to 499	500 to 3000	Cn1ncc(-c2ccc3scc(-c4ccncc4)c3n2)c1CC1CC1 [Preparative Example 82, 5-(5-(cyclopropylmethyl)-1-methyl-1H-pyrazol-4-yl)-3-(pyridin-4-yl)thieno[3,2-b]pyridine]
500 to 3000	500 to 3000	3000 to 10000	Cn1cc(-c2ccc3scc(-c4ccncc4)c3n2)nn1 [Preparative Example 93, 5-(1-methyl-1H-1,2,3-triazol-4-yl)-3-(pyridin-4-yl)thieno[3,2-b]pyridine]
20 to 99	3000 to 10000	500 to 3000	Cn1ccc(-c2ccc3scc(-c4ccncc4)c3n2)n1 [Preparative Example 86, 5-(1-methyl-1H-pyrazol-3-yl)-3-(pyridin-4-yl)thieno[3,2-b]pyridine]
500 to 3000	500 to 3000	3000 to 10000	CC(C)n1cc(-c2ccc3scc(-c4ccncc4)c3n2)cn1 [Preparative Example 79, 5-(1-isopropyl-1H-pyrazol-4-yl)-3-(pyridin-4-yl)thieno[3,2-b]pyridine]
100 to 499	100 to 499	100 to 499	Cn1cc(-c2ccc3scc(-c4ccncc4F)c3n2)cn1 [Preparative Example 36, 3-(3-fluoropyridin-4-yl)-5-(1-methyl-1H-pyrazol-4-yl)thieno[3,2-b]pyridine]
20 to 99	500 to 3000	500 to 3000	Cn1cc(-c2ccc3scc(-c4ccnc(CN)c4)c3n2)cn1 [Preparative Example 28, (4-(5-(1-methyl-1H-pyrazol-4-yl)thieno[3,2-b]pyridin-3-yl)pyridin-2-yl)methanamine]
100 to 499	100 to 499	100 to 499	Cn1cc(-c2ccc3scc(-c4ccnc(F)c4)c3n2)cn1 [Preparative Example 22, 3-(2-fluoropyridin-4-yl)-5-(1-methyl-1H-pyrazol-4-yl)thieno[3,2-b]pyridine]
20 to 99	100 to 499	100 to 499	Cc1nsc(-c2csc3ccc(-c4cnn(C)c4)nc23)n1 [Preparative Example 71, 3-(3-methyl-1,2,4-thiadiazol-5-yl)-5-(1-methyl-1H-pyrazol-4-yl)thieno[3,2-b]pyridine]
100 to 499	3000 to 10000	500 to 3000	c1ccc(Cn2cc(-c3ccc4scc(-c5ccncc5)c4n3)cn2)cc1 [Preparative Example 81, 5-(1-benzyl-1H-pyrazol-4-yl)-3-(pyridin-4-yl)thieno[3,2-b]pyridine]
20 to 99	20 to 99	20 to 99	Cn1cc(-c2ccc3scc(-c4ccns4)c3n2)cn1 [Preparative Example 67, 3-(isothiazol-5-yl)-5-(1-methyl-1H-pyrazol-4-yl)thieno[3,2-b]pyridine]
500 to 3000	500 to 3000	500 to 3000	Cc1sc2ccc(-c3cnn(C)c3)nc2c1-c1ccncc1 [Preparative Example 142, 2-methyl-5-(1-methyl-1H-pyrazol-4-yl)-3-(pyridin-4-yl)thieno[3,2-b]pyridine]
100 to 499	100 to 499	20 to 99	Cn1cc(-c2ccc3scc(Nc4ccccc4)c3n2)cn1 [Preparative Example 76, 5-(1-methyl-1H-pyrazol-4-yl)-N-phenylthieno[3,2-b]pyridin-3-amine]
3000 to 10000	500 to 3000	500 to 3000	Cn1cc(-c2ccc3scc(-c4ccncc4)c3n2)c(NC(=O)OC(C)(C)C)n1 [Preparative Example 83, tert-butyl(1-methyl-4-(3-(pyridin-4-yl)thieno[3,2-b]pyridin-5-yl)-1H-pyrazol-3-yl)carbamate]
3000 to 10000	3000 to 10000	3000 to 10000	Cn1cc(-c2ccc3scc(C(=O)c4ccccc4)c3n2)cn1 [Preparative Example 73, (5-(1-methyl-1H-pyrazol-4-yl)thieno[3,2-b]pyridin-3-yl)(phenyl)-methanone]

SMILES	IC50 (Haspin (h)) [nM]	IC50 (TRB2(h)) [nM]	IC50 (CDKL3(h)) [nM]
Cn1cc(-c2ccc3scc(-c4cnn(Cc5ccccc5)c4)c3n2)cn1	100 to 499	500 to 3000	500 to 3000
Cn1cc(-c2ccc3scc(C(O)c4ccccc4)c3n2)cn1 (stereo not drawn) [Preparative Example 74]	3000 to 10000	500 to 3000	100 to 499
Cn1cc(-c2ccc3scc(-c4ccnc(C#N)c4)c3n2)cn1	100 to 499	100 to 499	100 to 499
